# From patent publication US20240093251A1, “Reactivity of Nitrile Hydratase by Aldehyde” (Mitsubishi Chemical Corporation, priority 2021, published 2024)
# Structures can show the parent of a compound that is named as a salt.
# Legend:
# Type in all cases: biochemical
# nitrile hydratase [1] = experiment: Test Example 1: effect of compounds on the amide formation reaction with Rhodococcus rhodochrous J-1 bacterial cells; conditions: hydrocyanic acid 2.0 ppm in acrylonitrile, 25° C.
# Experimental: (§1) Acrylonitrile was prepared so as to have a hydrocyanic acid concentration of 2.0 ppm.
# A diluted solution containing an aldehyde compound diluted with a phosphate buffer (pH7.0) so as to obtain a concentration of 5 ppm or 10 ppm in the reaction solution, was added, and finally the phosphate buffer (pH7.0) was added to obtain a total amount of 6.2 g. The obtained solution was stirred while the temperature thereof was controlled at 25° C. To this solution, acrylonitrile (4.8 mL (acrylamide 50% equivalent, 38 wt %)) was added to initiate a reaction. At the time points of 3.5, 4.5, 5.0, and 6.0 hours later, the reaction solution was collected and the concentration of acrylonitrile was measured by gas chromatography (column: PoraPack-PS (manufactured by Waters Corporation), 1 m, 210° C., carrier gas: helium, detector: FID).
# (§2) The concentration ratio can be obtained in accordance with the following expression:
# (§3) Concentration ratio [%]=(acrylonitrile concentration of the case where aldehyde was added/the case where aldehyde was not added)×100
# nitrile hydratase [2] = experiment: Amide formation reaction from acrylonitrile with Rhodococcus rhodochrous J-1 bacterial cells, acetaldehyde in acrylonitrile (Examples 1-4); conditions: for Concentration ratio (4 hr) (acrylonitrile concentration with aldehyde / without aldehyde x100): 20° C.
# Experimental: Rhodococcus rhodochrous J-1 strain (FERMBP-1478) having nitrile hydratase activity was aerobically cultured in a medium (pH7.0) containing glucose (2.0%), urea (1.0%), peptone (0.5%), yeast extract (0.3%) and cobalt chloride (0.05%) at 30° C. The medium was washed with a 50 mM phosphate buffer (pH7.0) to obtain a bacterial suspension (3% on a dry-cell basis).
# A cyan 1000-ppm standard solution (manufactured by Hayashi Pure Chemical Ind., Ltd.) was added to acrylonitrile for industrial use (manufactured by Mitsubishi Chemical Corporation) such that the hydrocyanic acid concentration became 2.1 ppm on a weight basis. […]
# To a glass case (internal volume: 13.5 ml) with a lid, 3.15 g of a phosphate buffer (pH7.0), and 3.15 g of a diluted bacterial cell solution, which was prepared by diluting bacterial cells as mentioned above with the phosphate buffer (pH7.0) such that initial activity thereof in a reaction solution became 1460 U, were added. The mixture was stirred while controlling the temperature at 20° C. […] Four hours later, the reaction solution was collected and the concentration of acrylonitrile was measured by gas chromatography (column: PoraPack-PS (manufactured by Waters Corporation), 1 m, 210° C., carrier gas: helium, detector: FID).
# as §2, §3
# [3] = test system: nitrile hydratase derived from Rhodococcus rhodochrous M8 strain; experiment: Example 5: amide compound formation reaction by M8 strain-derived transformant (ATCC12674/pSJ-N01A); conditions: hydrocyanic acid 2.0 ppm in acrylonitrile, 25° C.
# Experimental: (§4) The transformant (ATCC12674/pSJ-N01A) obtained in the above step was inoculated in MYK medium (50 μg/ml kanamycin) and subjected to shaking culture performed at 30° C. for two days. The cultured transformant (1%) was inoculated in GGPK medium (1.5% glucose, 1% monosodium glutamate, 0.1% yeast extract, 0.05% K2HPO4, 0.05% KH2PO4, 0.05% […], 1% CoCl2, 0.1% urea, 50 μg/ml kanamycin, pH7.2). Shaking culture was carried out at 30° C. for three days and bacterial cells were centrifugally collected. Thereafter, the bacterial cells were washed with a 100 mM phosphate buffer (pH7.0) and a bacterial suspension was prepared.
# According to Example 1, the effect of propionaldehyde on amide compound formation reaction by M8 strain-derived transformant (ATCC12674/pSJ-N01A) was evaluated.
# as §1
# To a glass case (internal volume: 13.5 ml) with a lid, 1.00 g of a diluted bacterial-cell solution, which was prepared by diluting bacterial cells as mentioned above with the phosphate buffer (pH7.0) such that the initial amount of the bacterial cells in a reaction solution became 5.6 mg; and a diluted solution, which was prepared by diluting each aldehyde compound with a phosphate buffer (pH7.0) so as to obtain a concentration thereof of 10 ppm, 25 ppm or 50 ppm in a reaction solution, were added; and finally, a phosphate buffer (pH7.0) was added up to a total amount of 9.0 g. The solution obtained was stirred while the temperature thereof was controlled at 25° C. To this solution, acrylonitrile (1.0 g) was added to initiate a reaction. Six hours later, the reaction solution was collected and the concentration of acrylonitrile was measured by gas chromatography (column: PoraPack-PS (manufactured by Waters Corporation), 1 m, 210° C., carrier gas: helium, detector: FID).
# as §2, §3
# [4] = test system: nitrile hydratase derived from Pseudonocardia thermophila JCM3095 strain; experiment: Example 6: amide compound formation reaction by transformant (ATCC12674/pSJ-N02A); conditions: propionaldehyde 7 ppm in reaction solution, propionaldehyde/cyan 10.7 mol/mol, hydrocyanic acid 2.0 ppm in acrylonitrile, 25° C.
# Experimental: as §4, with “(ATCC12674/pSJ-N02A)” for “(ATCC12674/pSJ-N01A)”
# According to Example 1, the effect of propionaldehyde on amide compound formation reaction by transformant (ATCC12674/pSJ-N02A) was evaluated.
# Acrylonitrile was prepared so as to have a hydrocyanic acid concentration of 2.0 ppm. […]
# [5] = 5 ppm addition in reaction solution
# [6] = 10 ppm addition in reaction solution
molecule,measurement,setting,value
"OC[C@@H](O)[C@@H](O)CO [No. 12, meso-erythritol, reference compound]",Concentration Ratio (3.5 hr),nitrile hydratase [1]; [5],103.3%
same,Concentration Ratio (6 hr),nitrile hydratase [1]; [5],118.2%
same,Concentration Ratio (3.5 hr),nitrile hydratase [1]; [6],97.8%
same,Concentration Ratio (6 hr),nitrile hydratase [1]; [6],97.3%
paraformaldehyde [No. 14],Concentration Ratio (3.5 hr),nitrile hydratase [1]; [5],1.1%
same,Concentration Ratio (6 hr),nitrile hydratase [1]; [5],1.1%
"CCCCCC=O [No. 5, hexanal]",Concentration Ratio (3.5 hr),nitrile hydratase [1]; [5],83.9%
same,Concentration Ratio (6 hr),nitrile hydratase [1]; [5],17.8%
"CCCCCCCC=O [No. 7, octanal]",Concentration Ratio (3.5 hr),nitrile hydratase [1]; [5],106.4%
same,Concentration Ratio (6 hr),nitrile hydratase [1]; [5],117.5%
same,Concentration Ratio (3.5 hr),nitrile hydratase [1]; [6],72.9%
same,Concentration Ratio (6 hr),nitrile hydratase [1]; [6],11.6%
"O=CO [No. 10, formic acid, reference compound]",Concentration Ratio (3.5 hr),nitrile hydratase [1]; [5],99.6%
same,Concentration Ratio (6 hr),nitrile hydratase [1]; [5],88.9%
same,Concentration Ratio (3.5 hr),nitrile hydratase [1]; [6],95.1%
same,Concentration Ratio (6 hr),nitrile hydratase [1]; [6],94.9%
"O=CC=O [No. 11, dialdehyde oxalate]",Concentration Ratio (3.5 hr),nitrile hydratase [1]; [5],33.4%
same,Concentration Ratio (6 hr),nitrile hydratase [1]; [5],12.2%
"CCCCCCCCC=O [No. 8, nonanal]",Concentration Ratio (3.5 hr),nitrile hydratase [1]; [5],97.1%
same,Concentration Ratio (6 hr),nitrile hydratase [1]; [5],81.4%
same,Concentration Ratio (3.5 hr),nitrile hydratase [1]; [6],80.1%
same,Concentration Ratio (6 hr),nitrile hydratase [1]; [6],35.0%
"O=CC=Cc1ccccc1 [No. 16, cinnamaldehyde]",Concentration Ratio (3.5 hr),nitrile hydratase [1]; [5],97.0%
same,Concentration Ratio (6 hr),nitrile hydratase [1]; [5],102.6%
same,Concentration Ratio (3.5 hr),nitrile hydratase [1]; [6],99.2%
same,Concentration Ratio (6 hr),nitrile hydratase [1]; [6],87.1%
"COc1cc(C=O)ccc1O [No. 18, vanillin]",Concentration Ratio (3.5 hr),nitrile hydratase [1]; [5],92.9%
same,Concentration Ratio (6 hr),nitrile hydratase [1]; [5],71.7%
"C=C(C)C1CC=C(C=O)CC1 (stereo not shown) [No. 17, perillaldehyde]",Concentration Ratio (3.5 hr),nitrile hydratase [1]; [5],82.8%
same,Concentration Ratio (6 hr),nitrile hydratase [1]; [5],59.6%
"CC=O [No. 2, acetaldehyde]",Concentration ratio (4 hr) (acrylonitrile concentration with aldehyde / without aldehyde x100),"nitrile hydratase [2]; Example 1: hydrocyanic acid 2.1 ppm, acetaldehyde 10 ppm in acrylonitrile, acetaldehyde/cyan 2.9 mol/mol",38.8%
same,Concentration ratio (4 hr) (acrylonitrile concentration with aldehyde / without aldehyde x100),"nitrile hydratase [2]; Example 2: hydrocyanic acid 2.1 ppm, acetaldehyde 6 ppm in acrylonitrile, acetaldehyde/cyan 1.8 mol/mol",76.1%
same,Concentration ratio (4 hr) (acrylonitrile concentration with aldehyde / without aldehyde x100),"nitrile hydratase [2]; Example 3: hydrocyanic acid 2.1 ppm, acetaldehyde 3 ppm in acrylonitrile, acetaldehyde/cyan 0.9 mol/mol",92.5%
same,Concentration ratio (4 hr) (acrylonitrile concentration with aldehyde / without aldehyde x100),"nitrile hydratase [2]; Example 4: hydrocyanic acid 1.1 ppm, acetaldehyde 10 ppm in acrylonitrile, acetaldehyde/cyan 5.6 mol/mol",9.8%
same,rate of a reaction that converts acrylonitrile to an amide compound,"nitrile hydratase [2]; compared to Comparative Example without acetaldehyde, hydrocyanic acid 2.1 ppm or 1.1 ppm",high
same,Concentration Ratio (3.5 hr),nitrile hydratase [1]; [5],7.5%
same,Concentration Ratio (6 hr),nitrile hydratase [1]; [5],9.2%
"C1N2CN3CN1CN(C2)C3 [No. 20, hexamethylenetetramine]",Concentration Ratio (3.5 hr),nitrile hydratase [1]; [5],0.3%
same,Concentration Ratio (6 hr),nitrile hydratase [1]; [5],2.4%
"CCCCCCC=O [No. 6, heptanal]",Concentration Ratio (3.5 hr),nitrile hydratase [1]; [5],62.1%
same,Concentration Ratio (6 hr),nitrile hydratase [1]; [5],17.6%
"CCC=O [No. 3, propionaldehyde]",Concentration Ratio (3.5 hr),nitrile hydratase [1]; [5],2.2%
same,Concentration Ratio (6 hr),nitrile hydratase [1]; [5],1.4%
same,Concentration Ratio (6 hr),"[3]; propionaldehyde 10 ppm in reaction solution, propionaldehyde/cyan 22.9 mol/mol",82.7%
same,Concentration Ratio (6 hr),"[3]; propionaldehyde 25 ppm in reaction solution, propionaldehyde/cyan 57.1 mol/mol",70.4%
same,Concentration Ratio (6 hr),"[3]; propionaldehyde 50 ppm in reaction solution, propionaldehyde/cyan 114.3 mol/mol",60.0%
same,Concentration Ratio (6 hr),[4],33.3%
"CCCC=O [No. 4, butyraldehyde]",Concentration Ratio (3.5 hr),nitrile hydratase [1]; [5],3.1%
same,Concentration Ratio (6 hr),nitrile hydratase [1]; [5],2.7%
"CCCCCCCCCC=O [No. 9, decanal]",Concentration Ratio (3.5 hr),nitrile hydratase [1]; [5],96.1%
same,Concentration Ratio (6 hr),nitrile hydratase [1]; [5],67.0%
"O=Cc1ccccc1 [No. 15, benzaldehyde]",Concentration Ratio (3.5 hr),nitrile hydratase [1]; [5],92.0%
same,Concentration Ratio (6 hr),nitrile hydratase [1]; [5],66.2%
"CC1NC(C)NC(C)N1 (stereo not shown) [No. 19, acetaldehyde ammonia]",Concentration Ratio (3.5 hr),nitrile hydratase [1]; [5],30.0%
same,Concentration Ratio (6 hr),nitrile hydratase [1]; [5],3.3%
